Test results: US9388147B2 (Receptos, Inc., priority 2009, dated 2016)
Structures can show the parent of a compound that is named as a salt.

Experiments:
[1] = molecular target: T1, S1P2 (Homo sapiens, UniProt O95136); test: Specificity over other S1P receptors: S1P2 CRE-bla CHOK1 reporter assay; assay type: cell-based; details: S1P2 CRE-bla CHOK1, without Forskolin; read-out: S1P2 agonist value (EC50)
T1 construct: expressed in transfected cells; host or cells: CRE-bla CHOK1
Experimental: (§1) Cells were seeded into 384-well black wall/clear bottom plates at 10^4 cells/well/19.5 μl assay media (DMEM-phenol free, 0.5% charcoal/dextran stripped serum, 2 mM glutamine, 0.1 mM NEAA, 1 mM Na-Pyruvate, 25 mM Hepes) and incubated for 18 hrs at 37° C. in 5% CO2. Dose response curves (10-point) were generated in 10 mM Hepes, 0.1% Pluronic F127, in the presence of Forskolin. Cells were treated with 0.5 μl compound in the presence of 2 μM Forskolin for 4 hrs at 37° C. The FRET-based β-lactamase fluorescent substrate (LiveBLAzer™-FRET B/G Loading Kit CC4-AM; Invitrogen) was prepared according to manufacturer's directions, and incubated with cells for 2 hrs at room temperature. Plates were read at Ex:410/Em:458 and Ex:410/Em:522, and the response ratio determined. Data was analyzed by non-linear regression to determine the EC50 for inhibition of Forskolin induced cAMP.
(§2) To assess compound specificity on other S1P receptors the following cell lines were used: S1P2 CRE-bla CHOK1, S1P3-Gα15 NFAT-bla HEK293T (Invitrogen), S1P4-bla TANGO U2OS (Invitrogen), S1P5-bla TANGO U2OS (Invitrogen). The same assay set up for S1P1 was used but without Forskolin. S1P4 and S1P5 assays were performed in FreeStyle Expression medium (Invitrogen). S1P5 cells were incubated for 48 hrs in prior to treatment with compound.

[2] = molecular target: T2, S1P4 (Homo sapiens, UniProt O95977); test: Specificity over other S1P receptors: S1P4-bla TANGO U2OS assay; assay type: cell-based; details: read-out: S1P4 agonist value (EC50)
T2 construct: Tango fusion (own knowledge: protease cleavage site plus GAL4-VP16 transcription factor at the receptor's C-terminus); host or cells: U2OS (Tango -bla)
T2 sequence (O95977 1-384): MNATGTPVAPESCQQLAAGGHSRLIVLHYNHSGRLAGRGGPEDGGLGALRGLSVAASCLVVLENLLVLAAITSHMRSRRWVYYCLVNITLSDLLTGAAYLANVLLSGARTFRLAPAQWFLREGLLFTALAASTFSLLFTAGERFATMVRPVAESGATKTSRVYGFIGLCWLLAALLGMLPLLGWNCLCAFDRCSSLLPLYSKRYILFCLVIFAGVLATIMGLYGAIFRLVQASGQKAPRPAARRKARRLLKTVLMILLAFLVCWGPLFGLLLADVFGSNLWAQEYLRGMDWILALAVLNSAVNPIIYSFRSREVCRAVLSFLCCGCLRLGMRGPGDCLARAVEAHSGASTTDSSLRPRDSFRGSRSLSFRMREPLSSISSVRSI
Experimental: as §1, §2

[3] = molecular target: T3, S1P3 (Homo sapiens, UniProt Q99500); test: Specificity over other S1P receptors: S1P3-Gα15 NFAT-bla HEK293T reporter assay; assay type: cell-based; details: without Forskolin, read-out: S1P3 agonist value (EC50)
T3 construct: host or cells: NFAT-bla HEK293T
T3 sequence (Q99500 whole entry): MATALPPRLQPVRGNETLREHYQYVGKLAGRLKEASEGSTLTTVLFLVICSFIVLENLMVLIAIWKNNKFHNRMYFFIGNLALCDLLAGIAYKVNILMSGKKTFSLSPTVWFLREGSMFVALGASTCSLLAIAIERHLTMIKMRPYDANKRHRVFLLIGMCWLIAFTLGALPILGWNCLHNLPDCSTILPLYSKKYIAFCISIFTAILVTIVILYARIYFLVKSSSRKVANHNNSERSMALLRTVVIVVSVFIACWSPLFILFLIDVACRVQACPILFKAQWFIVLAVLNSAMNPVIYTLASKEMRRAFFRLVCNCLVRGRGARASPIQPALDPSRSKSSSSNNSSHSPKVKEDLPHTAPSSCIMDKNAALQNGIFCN
Experimental: as §1, §2

[4] = Determination of absolute oral bioavailability in rats; assay type: in vivo, Sprague-Dawley rat; details: non-fasted female Sprague-Dawley rats, oral solution 0.3 mg/kg (85), 2 mg/kg (49, 50), iv 0.3 mg/kg (49, 50), 0.8 mg/kg racemic 85/86
Experimental: All pharmacokinetic studies were conducted in non-fasted female Sprague-Dawely rats (Simonsen Laboratories or Harlan Laboratories). Rats were housed in an ALAAC accredited facility and the research was approved by the facilities Institutional Animal Care and Use Committee (IACUC). The animals were acclimated to the laboratory for at least 48 h prior to initiation of experiments.
Compounds were formulated in 5% DMSO/5% Tween20 and 90% purified water (intravenous infusion) or 5% DMSO/5% Tween20 and 90% 0.1N HCL (oral gavage). The concentration of the dosing solutions was verified by HPLC-UV. For intravenous dosing, compounds were administered by an infusion pump into the jugular vein over one minute to manually restrained animals (n=4 rats/compound). The intravenous doses were 0.8 for a 1:1 mixture (racemic) of 85 and 86, and 0.3 and 0.3 mg/kg for compounds 49 and 50, respectively. Oral dosing was by gavage using a standard stainless steel gavage needle (n=2-4 rats/compound). The oral solution doses were 0.3, 2 and 2 mg/kg for compounds 85, 49 and 50, respectively. For both routes of administration, blood was collected at eight time-points after dosing with the final sample drawn 24 h post dose. Aliquots of the blood samples were transferred to polypropylene 96-well plate and frozen at −20° C. until analysis. […]
Concentrations in the rat pharmacokinetic samples were determined using a standardized HPLC-LC/MS/MS method relative to the eight point standard curve. […] Collision energies used to generate daughter ions ranged between 29 and 39 V. Peak area ratios obtained from MRM of the mass transitions specific for each compound were used for quantification. The limit of quantification of the method was typically 5 nM. Data were collected and analyzed using Analyst software version 1.4.2.
Blood concentration versus time data were analyzed using non-compartmental methods (WinNonlin version 5.2; model 200 for oral dosing and model 202 for intravenous infusion). Absolute oral bioavailability (%) was calculated using the following expression: (Oral AUC×IV Dose)/(IV AUC×Oral Dose)×100. […]

T1 sequence (O95136 whole entry, species assumed): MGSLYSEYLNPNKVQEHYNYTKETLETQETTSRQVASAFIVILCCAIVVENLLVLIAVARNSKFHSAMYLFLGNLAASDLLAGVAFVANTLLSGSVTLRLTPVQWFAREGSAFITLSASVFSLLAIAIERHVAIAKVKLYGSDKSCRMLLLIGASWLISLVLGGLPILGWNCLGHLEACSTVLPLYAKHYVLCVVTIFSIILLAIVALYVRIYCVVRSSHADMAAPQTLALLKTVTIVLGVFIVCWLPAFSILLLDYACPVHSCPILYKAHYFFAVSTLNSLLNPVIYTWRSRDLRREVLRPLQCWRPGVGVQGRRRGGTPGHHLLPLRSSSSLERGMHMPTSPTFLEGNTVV

Row | SMILES | EC50 [1] [µM] | EC50 [2] [µM] | EC50 [3] [µM] | Rat - Oral bioavailability Solution [4] [%] | bioavailability ([4]; rat, whole blood) [%]
1 | CC(C)Oc1ccc(-c2nc(-c3cccc4c3CC[C@H]4NCCO)no2)cc1C#N [Compound 85, (R)-5-(3-(1-(2-hydroxyethylamino)-2,3-dihydro-1H-inden-4-yl)-1,2,4-oxadiazol-5-yl)-2-isopropoxybenzonitrile] | 5.69 | 1.61 | 4.5 | 69 | –
2 | CC(C)Oc1ccc(-c2nc(-c3cccc4c3CC[C@H]4NCC(=O)N(C)C)no2)cc1C#N [Compound 90, (R)-2-(4-(5-(3-cyano-4-isopropoxyphenyl)-1,2,4-oxadiazol-3-yl)-2,3-dihydro-1H-inden-1-ylamino)-N,N-dimethylacetamide hydrochloride] | 6.66 | > 10 | 8.82 | – | –
3 | CC(C)Oc1ccc(-c2nc(-c3cccc4c3CC[C@H]4N)no2)cc1C#N [Compound 49, (R)-5-(3-(1-amino-2,3-dihydro-1H-inden-4-yl)-1,2,4-oxadiazol-5-yl)-2-isopropoxy-benzonitrile hydrochloride] | 1.08 | 9.03 | 8.95 | – | 93
4 | CC(C)Oc1ccc(-c2nc(-c3cccc4c3CC[C@@H]4NCC(=O)N(C)C)no2)cc1C#N [Compound 91, (S)-2-(4-(5-(3-cyano-4-isopropoxyphenyl)-1,2,4-oxadiazol-3-yl)-2,3-dihydro-1H-inden-1-ylamino)-N,N-dimethylacetamide] | > 10 | > 10 | > 10 | – | –
5 | CC(C)Oc1ccc(-c2nc(-c3cccc4c3CC[C@@H]4N)no2)cc1C#N [Compound 50, (S)-5-(3-(1-amino-2,3-dihydro-1H-inden-4-yl)-1,2,4-oxadiazol-5-yl)-2-isopropoxy-benzonitrile] | 7.72 | 7.87 | 8.91 | 91 | –
